Data from ChEMBL document CHEMBL1129133 (Bioorg Med Chem Lett, 1996).

Assays:
[1] = Lipophilicity was determined; assay type: physicochemical; conditions: octanol/water
[2] = molecular target: Phosphodiesterase 1 (Rattus norvegicus, UniProt Q63421+Q9EPR9+Q01066); assay: Inhibition of Phosphodiesterase 1 from rat liver
[3] = molecular target: Phosphodiesterase 3 (Homo sapiens, UniProt Q14432+Q13370); assay: Inhibition of Phosphodiesterase 3 from rabbit platelets; set-up: species or system Oryctolagus cuniculus; conditions: target entry is the homologue from another species
[4] = molecular target: cGMP-specific 3',5'-cyclic phosphodiesterase (Homo sapiens, UniProt O76074); assay: Inhibition of Phosphodiesterase 5 from human corpus cavernosum

Row | logD [1] | IC50 [2] | IC50 [3] | IC50 [4] | SMILES
1 | 1.5 | 390 nM | > 100 µM |  | CCCc1nn(C)c2c(=O)[nH]c(-c3cc(S(=O)(=O)N4CCNCC4)ccc3OCC)nc12
2 |  |  | 83 µM |  | CCCc1nn(C)c2c(=O)[nH]c(-c3ccccc3NS(C)(=O)=O)nc12
3 |  |  | > 100 µM |  | CCCc1nn(C)c2c(=O)[nH]c(-c3ccccc3[N+](=O)[O-])nc12
4 |  | 860 nM |  | 82 nM | CCCc1n[nH]c2c(O)nc(-c3ccccc3OCC)nc12
5 |  | 9400 nM | > 100 µM |  | CCCOc1ccccc1-c1nc2[nH]nnc2c(=O)[nH]1 [ZAPRINAST]
6 |  |  | 63 µM |  | CCCc1n[nH]c2c(=O)[nH]c(-c3ccccc3)nc12
7 | 2.3 | 110 nM | 34 µM |  | CCCc1nn(C)c2c(O)nc(-c3cc(S(=O)(=O)N4CCN(C(N)=O)CC4)ccc3OCC)nc12
8 |  |  | > 100 µM |  | CCCc1n[nH]c2c(O)nc(-c3ccccc3O)nc12
9 | 2 | 460 nM | 62 µM |  | CCCc1nn(C)c2c(=O)[nH]c(-c3cc(S(=O)(=O)N4CCN(CCO)CC4)ccc3OCC)nc12 [LODENAFIL]
10 | 2.7 |  |  |  | CCCc1nn(C)c2c(=O)[nH]c(-c3cc(S(=O)(=O)N4CCN(C)CC4)ccc3OCC)nc12
11 |  |  | 47 µM |  | CCCc1nn(C)c2c(=O)[nH]c(-c3ccccc3OCC3CC3)nc12
12 | 4 | 790 nM | > 100 µM | 27 nM | CCCc1nn(C)c2c(=O)[nH]c(-c3ccccc3OCC)nc12
13 |  | 3300 nM | > 100 µM |  | CCOc1ccccc1-c1nc2c(C)nn(C)c2c(=O)[nH]1
